Laboratory results: patent publication US20160367542A1, “NICOTINAMIDE DERIVATE IN THE TREATMENT OF ACUTE CORONARY SYNDROME” (GlaxoSmithKline LLC, priority 2012, published 2016)
≈ marks a conversion by molar mass, not a printed value.

Assays:
[1] = physchem; assay type: physicochemical
Text: There is therefore a need for a liquid formulation of said compound that is suitable for this mode of administration which solves this technical problem.

[2] = test system: in-vivo macrophage activity in the carotid arteries and aorta of subjects with established atherosclerosis; assay: In-vivo macrophage activity study, FDG-PET/CT imaging; set-up: species or system human; settings: 84 days
Text: Macrophage activity and presence are critical features to the vulnerability of plaque in the vasculature. The pivotal nature of p38 MAPK in signaling stress, and its presence in macrophages can be monitored by labeling glucose (fluorodeoxyglucose), an otherwise key nutrient for macrophage activity, and observing its uptake in macrophages using […]. […] The primary objective was to measure in-vivo macrophage activity, by fluorodeoxyglucose (FDG) positron emission tomography (PET)/computed tomography (CT) imaging, in carotid arteries and aorta following a 12-week treatment with losmapimod (7.5 mg once daily [QD] and 7.5 mg twice daily [BID]), in the setting of chronic statin therapy, as compared to placebo. Secondary objectives included safety and tolerability of 12 weeks of dosing with losmapimod (7.5 mg QD or 7.5 mg BID). Inflammatory biomarkers and the effect of losmapimod 7.5 mg QD vs 7.5 mg BID on in-vivo macrophage activity, as assessed by FDG-PET/CT imaging. Ninety-nine patients with vascular inflammation on statins were randomised to losmapimod 7.5 mg once daily (QD), twice daily (BID) or placebo for 84 days. Vascular inflammation was assessed by PET-CT imaging of the carotid arteries and aorta using ^18fluorodeoxyglucose (FDG); the artery with the highest average maximum tissue-to-background ratio (TBR) at baseline (TBR>1.6). […]

[3] = test system: patients with acute coronary syndrome (non-ST elevation); assay: Recurrent infarction, infarct size and cardiac function in subjects with myocardial infarction (Example 4 study); assay type: in vivo, human
Procedure: (§1) In a randomised, double-blind, placebo controlled study, patients (n=approximately 500) who were admitted to a hospital with the diagnosis of acute coronary syndrome (specifically with non-ST elevation EKG findings upon entry) were provided an oral dose of losmapimod (7.5 mg or 15 mg and thereafter followed by 7.5 mg every 12 hours) or placebo for a period of 3 months.

[4] = test system: CRP and IL6 levels; assay: Inflammatory markers in subjects with myocardial infarction (Example 4 study); assay type: in vivo, human; settings: oral 7.5 mg or 15 mg then 7.5 mg every 12 hours; average 4.5 day initial hospital stay, setting of stent placement
Procedure: as §1

[5] = test system: high sensitivity C-reactive protein; assay: Inflammatory biomarkers in the FDG-PET/CT study; assay type: in vivo, human; settings: 7.5 mg BID versus placebo; 95% CI −46, −5; p=0.023
Procedure: The primary objective was to measure in-vivo macrophage activity, by fluorodeoxyglucose (FDG) positron emission tomography (PET)/computed tomography (CT) imaging, in carotid arteries and aorta following a 12-week treatment with losmapimod (7.5 mg once daily [QD] and 7.5 mg twice daily [BID]), in the setting of chronic statin therapy, as compared to placebo. Secondary objectives included safety and tolerability of 12 weeks of dosing with losmapimod (7.5 mg QD or 7.5 mg BID). Inflammatory biomarkers and the effect of losmapimod 7.5 mg QD vs 7.5 mg BID on in-vivo macrophage activity, as assessed by FDG-PET/CT imaging. Ninety-nine patients with vascular inflammation on statins were randomised to losmapimod 7.5 mg once daily (QD), twice daily (BID) or placebo for 84 days. Vascular inflammation was assessed by PET-CT imaging of the carotid arteries and aorta using ^18fluorodeoxyglucose (FDG); the artery with the highest average maximum tissue-to-background ratio (TBR) at baseline (TBR>1.6). 92% of the subjects were white, 86% male, the mean age was 63.8 years (SD 6.13). 72% were current or ex-smokers. […] All subjects were on a stable dose of statin for at least 3 months prior to the first dose and continued on this dose of statin throughout the study.

[6] = test system: hypercholerolesteric patients; settings: Circulation. 2011;123:515-523; cited from earlier work

solubility [1]: ~5 µg/mL (≈ 13 µM)
Structure (SMILES): Cc1c(F)cc(C(=O)NC2CC2)cc1-c1ccc(C(=O)NCC(C)(C)C)cn1 [losmapimod, 6-(5-cyclopropylcarbamoyl-3-fluoro-2-methyl-phenyl)-N-(2,2-dimethylpropyl)-nicotinamide]
proportion of active slices (TBR≧1.6), change from baseline ([2]; 7.5 mg BID, placebo −6.1%, p=0.002, exploratory analysis): −9.8%
change from baseline to day 84 in average maximum TBR (primary end point) ([2]; losmapimod versus placebo, patients on statins): not significantly different
size of the infarct by magnetic resonance image, lower versus placebo ([3]; MRI 4-5 days after the index infarct, smaller cohort n=approximately 90): > 20%
BNP levels (surrogate for cardiac function), reduction ([3]; after 12 weeks of treatment): > 20%
size of the index infarct by release of cardiac muscle enzymes ([3]; enzymes measured every 8 hours, treated versus placebo group): unchanged
three month MR imaging of cardiac function and dimensions ([3]; three months of treatment): improved function and smaller overall cardiac dimensions
number of recurrent myocardial infarctions (or episodes of ACS), lower with treatment compared to placebo ([3]; within the first few months beyond the index infarct, not statistically significant): over 15%
CRP level, lower with treatment compared to placebo [4]: > 50%
IL6 level, lower with treatment compared to placebo [4]: > 50%
high sensitivity C-reactive protein, reduction versus placebo [5]: −28%
nitric oxide mediated vasodilatation [6]: improves
